# US8193225B2, “Isoxazole amides, derivatives and methods of chemical induction of neurogenesis” (priority 2006, dated 2012)
# Entries after “also recorded” stand apart in the source; their conditions may differ.
# Columns and labels:
# HCN cells [1] = experiment: in vitro neuronal differentiation of HCN cells (morphology, Tuj1 staining); format: cell-based, rat; settings: for morphologic neuronal differentiation of NPCs: 25 μM AMPA or 50 μM Muscimol; for effect of inhibitor on Isx-9 neurogenic activity (Tuj1+ cells): Isx-9-treated HCN cells, KN93 2 d cultures
# [2] = system: MEF2 reporter gene (3XMRE-luc); experiment: MEF2 reporter gene (3XMRE-luc) assay in HCN cells; format: cell-based, rat; settings: Isx-9-treated HCN cells; KN93, KN92 5 μM (10, 5, 1 μM), G66976 200 nM
# HDAC5 = experiment: protein blotting of phospho-HDAC5, HDAC4 and phospho-CaMKII in HCN cells; format: cell-based, rat; settings: Isx/Isx-9-treated NSCs; KN93, KN92 5 μM
# neuroD-luciferase = neuroD-luciferase reporter gene assay in HCN cells; format: cell-based, rat; settings: for effect of inhibitor on neuroD-luc activity of Isx/Isx-9-treated cells: inhibitor added to Isx/Isx-9-treated HCNs/NPCs, 24 h
# pHDAC5:14-3-3-luciferase = experiment: mammalian 2-hybrid luciferase assay (pHDAC5:14-3-3-luciferase); format: cell-based, rat; settings: Isx-9-treated NSCs
# Description: FIGS. 5A-F—CaMK is the major HDAC kinase activated by Isx small-molecules in NSCs. […] The doses of KN93 and KN92 in reporter assays were 10, 5, and 1 μM. (FIG. 5D) A schematic diagram of a mammalian 2-hybrid luciferase assay system (pHDAC5:14-3-3-luciferase) which is dependent on the interaction of HDAC5 and 14-3-3. […] (FIG. 5E) Shown are representative images and quantification of the percentage of Isx-9-treated HCNs showing GFP-HDAC5 localization in nuclear (Nuc), cytoplasmic (Cyto), or both compartments (Nuc/Cyto) with and without KN93 or KN92 treatment after 24 h. […] Scale bar: 5 μm. Values in […] represent the average of 12 replicates±SD. Values in FIG. 5E represent the average of 2 replicates+SD of one representative experiment from two independent experiments.
# Reporter gene assay. All reporter gene assays were done in 96-well format, and each data point represents the average of 12 replicates. Reporter genes included neuroD-, gIuR2-, MREx3-, NR1-, and pHDAC5:14-3-3-luciferase and each well contained ˜25,000 cells in a volume of 100 μl. 5×10^6 HCN cells were transfected with 5 μg DNA by electroporation (Amaxa) and plated in growth media overnight. In the case of pHDAC5:14-3-3-luciferase, cells were transfected with 2 μg of each plasmid. Compounds were added the day following transfection and luciferase assays were performed 24 or 48 h later. […]
# HCN cells [3] = experiment: RT-PCR and protein blotting of gene expression in HCN cells; format: cell-based, rat; settings: NPCs, 50 μM Muscimol
# Nkx2.5-luc = Nkx2.5-luc reporter in P19CL6 clone #5-1; format: cell-based, mouse
# Excerpt: Assay development. An Nkx2.5-luc transgene was constructed by replacing the two coding sequence exons of NRx2.5 locus from the ATG with the coding sequence of luc (from pGL3-basic vector, Promega) in an ˜180,000 base pair-long BAC (FIG. 11). The recombinant BAC DNA was introduced into pluripotent P19CL6 cells using Lipofectamine-2000 (Invitrogen) and neo^R clones were selected, and tested for chemically inducible luc activity with sodium butyrate (NaB). #5-1, a clonal stem cell line with low basal and at least a 4-fold higher NaB-inducible luciferase activity compared to vehicle control (DMSO), yielding a Z′ value of 0.7 in 384-well plate format (Zhang et al. 1999), was chosen for the HTS.
# HCN cells [4] = experiment: cell death in HCN cells (propidium iodide/Hoescht live staining); format: cell-based, rat; settings: 2 μM Q-VD-Oph
# Description: Neural stem cell culture, in vitro differentiation, and CaMK inhibitor studies. The hippocampal neural stem/progenitor (NSC) line used in this study (HCN cells) were originally isolated from adult (8-10 wks old) female Fisher 344 rats and have been characterized previously (Gage et al., 1995; Palmer et al., 1997). HCN cells were cultured in DMEM:F12 (Omega Scientific) with N2 supplement (Invitrogen) and basic fibroblast growth factor (20 ng/ml FGF-2) (PeproTech). The mouse whole brain neural stem/progenitors (MWB) were derived from adult (8-10 wks old) C57BL/6 mice that have been characterized previously (Ray and Gage, 2006). […]
# Immunostaining, GFP-HDAC5 visualization, and fluorescence microscopy. […] Quantification of cell phenotype was done by sampling 6-8 random fields in each well and counting a total of 250-500 cells at 20× magnification. […] For quantification of live/dead cells, images were taken of cultures live-stained with propidium iodide and Hoescht 33342 at 20× magnification, and 500-1000 cells were counted by sampling 6-8 random fields in each well. For quantification of HDAC5 subcellular localization, 20× images were taken of live cultures, and 40-50 GFP+ cells were counted by sampling 3 random fields in each well. […]
smiles,measurement,setting,value
"Cc1onc(O)c1CC(N)C(=O)O (stereo not drawn) [AMPA, α-amino-3-hydroxy-5-methyl isoxazole-4-proprionic acid]",morphologic neuronal differentiation of NPCs,HCN cells [1],failed to induce morphologic neuronal differentiation
Cn1c2ccccc2c2c3c(c4c5ccccc5n(CCC#N)c4c21)CNC3=O [Isx G66976],effect of kinase inhibitor on Isx-9-mediated MEF2 reporter activation,[2],did not significantly affect Isx-induced reporter gene expression; also recorded: completely ineffective
same,effect of inhibitor on phospho-HDAC5 and phospho-CaMKII levels,HDAC5,did not
same,effect of inhibitor on neuroD-luc activity of Isx/Isx-9-treated cells,neuroD-luciferase,did not significantly affect Isx-induced reporter gene expression
COc1ccc(S(=O)(=O)Nc2ccccc2CN(C)C/C=C/c2ccc(Cl)cc2)cc1 [KN92],effect of kinase inhibitor on Isx-9-mediated MEF2 reporter activation,[2],had no effect
same,effect of inhibitor on phospho-HDAC5 and phospho-CaMKII levels,HDAC5,had no effect
same,HDAC5 kinase activity (pHDAC5:14-3-3-luciferase),pHDAC5:14-3-3-luciferase,not
COc1ccc(S(=O)(=O)N(CCO)c2ccccc2CN(C)C/C=C/c2ccc(Cl)cc2)cc1 [KN93],effect of kinase inhibitor on Isx-9-mediated MEF2 reporter activation,[2],extremely effective in blocking Isx-mediated reporter gene expression; also recorded: blocked Isx-9-mediated MEF2 reporter activation
same,effect of inhibitor on phospho-HDAC5 and phospho-CaMKII levels,HDAC5,blocked HDAC5 phosphorylation; also recorded: decreased phospho-HDAC5 and active phospho-CaMKII levels
same,HDAC5 kinase activity (pHDAC5:14-3-3-luciferase),pHDAC5:14-3-3-luciferase,completely blocked HDAC5 kinase activity
same,effect of inhibitor on Isx-9 neurogenic activity (Tuj1+ cells),HCN cells [1],resulted in an inhibition of Isx-9 neurogenic activity
same,effect of inhibitor on neuroD-luc activity of Isx/Isx-9-treated cells,neuroD-luciferase,extremely effective in blocking Isx-mediated reporter gene expression
C[C@]12N[C@H](Cc3ccccc31)c1ccccc12 [MK801],effect of inhibitor on neuroD-luc activity of Isx/Isx-9-treated cells,neuroD-luciferase,small but significant decrease; also recorded: attenuated neuroD-luc activity
"NCc1cc(O)no1 [Muscimol, 5-aminomethyl-3-hydroxy-isoxazole]",morphologic neuronal differentiation of NPCs,HCN cells [1],failed to induce morphologic neuronal differentiation
same,neuroD-luciferase activity,"neuroD-luciferase; NPCs, 15 μM Muscimol",an increase in neuroD-luciferase activity
same,GluR2/3 protein expression,HCN cells [3],increase
"CCCC(=O)[O-].[Na+] [NaB, sodium butyrate]",inducible luciferase activity compared to vehicle control (DMSO),Nkx2.5-luc,≥ 4 fold
CC(C)[C@H](NC(=O)c1ccc2ccccc2n1)C(=O)N[C@@H](CC(=O)O)C(=O)COc1c(F)cccc1F [Q-VD-Oph],effect of inhibitor on Isx-9 neurogenic activity (Tuj1+ cells),HCN cells [1],does not further increase Tuj1+ cells
same,cell death in Isx-9-treated HCNs,HCN cells [4],blocks cell death
